Test results as given in publication PMC12645437, “Orthogonal IMiD-Degron Pairs Induce Selective Protein Degradation in Cells” (ACS Chemical Biology, 2025).

Experiments:
[1] = target: WEIK mutant ZF degron fused to EGFP (Homo sapiens, UniProt Q96SW2+Q9UKT9, N149E/Q147W/Q150I/S154K); assay: Ratiometric EGFP:mCherry flow cytometry degradation assay, 18 h
[2] = target: FDIP mutant ZF degron fused to EGFP (Homo sapiens, UniProt Q96SW2+Q9UKT9, N149D/Q147F/Q150I/S154P); assay: as above
endogenous GSPT1 = target: T1, endogenous GSPT1 (Homo sapiens, UniProt P15170); assay: Western blot for GSPT1 in WEIS-EGFP Jurkat cells; assay type: cell-based; conditions: Jurkat transduced with EGFP-WEIS, 18 h
T1 construct: endogenous in cells; host or cells: Jurkat transduced with WEIS-EGFP
T1 sequence (P15170 whole entry): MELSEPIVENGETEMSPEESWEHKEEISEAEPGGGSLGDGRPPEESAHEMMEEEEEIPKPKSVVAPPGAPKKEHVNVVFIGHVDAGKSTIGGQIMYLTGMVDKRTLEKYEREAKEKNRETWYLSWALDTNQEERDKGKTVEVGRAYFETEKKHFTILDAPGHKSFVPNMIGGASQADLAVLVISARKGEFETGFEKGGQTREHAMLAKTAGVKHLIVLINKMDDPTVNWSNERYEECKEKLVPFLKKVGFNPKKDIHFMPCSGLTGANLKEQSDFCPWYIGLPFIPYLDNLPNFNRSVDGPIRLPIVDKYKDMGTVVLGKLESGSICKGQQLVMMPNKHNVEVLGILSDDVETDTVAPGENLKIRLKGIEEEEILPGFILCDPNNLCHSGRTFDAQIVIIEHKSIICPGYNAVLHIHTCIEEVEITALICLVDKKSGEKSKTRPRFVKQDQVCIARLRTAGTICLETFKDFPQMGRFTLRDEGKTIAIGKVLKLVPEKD

endogenous IKZF1 = target: T2, endogenous IKZF1 (Homo sapiens, UniProt Q13422+Q96SW2); assay: Western blot for IKZF1 in WEIS-EGFP Jurkat cells; assay type: cell-based; conditions: Jurkat transduced with EGFP-WEIS, 18 h
T2 construct: endogenous in cells; host or cells: Jurkat (untransduced for immunostaining; WEIS-EGFP-transduced for the blot)
T2 sequence (Q13422 whole entry): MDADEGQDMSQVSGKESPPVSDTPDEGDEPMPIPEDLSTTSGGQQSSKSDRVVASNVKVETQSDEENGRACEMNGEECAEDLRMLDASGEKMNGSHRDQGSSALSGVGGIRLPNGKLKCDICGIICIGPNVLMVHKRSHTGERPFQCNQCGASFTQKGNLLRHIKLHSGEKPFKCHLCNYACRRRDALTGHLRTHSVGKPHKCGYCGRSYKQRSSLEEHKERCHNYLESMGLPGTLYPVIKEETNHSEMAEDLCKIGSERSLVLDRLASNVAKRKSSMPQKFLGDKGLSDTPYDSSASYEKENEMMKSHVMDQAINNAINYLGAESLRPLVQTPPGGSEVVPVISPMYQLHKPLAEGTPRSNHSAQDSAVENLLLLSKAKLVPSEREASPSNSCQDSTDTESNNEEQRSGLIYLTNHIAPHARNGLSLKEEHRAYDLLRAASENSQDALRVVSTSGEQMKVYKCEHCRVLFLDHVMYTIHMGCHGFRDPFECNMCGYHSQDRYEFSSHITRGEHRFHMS
T2 sequence (Q96SW2 whole entry): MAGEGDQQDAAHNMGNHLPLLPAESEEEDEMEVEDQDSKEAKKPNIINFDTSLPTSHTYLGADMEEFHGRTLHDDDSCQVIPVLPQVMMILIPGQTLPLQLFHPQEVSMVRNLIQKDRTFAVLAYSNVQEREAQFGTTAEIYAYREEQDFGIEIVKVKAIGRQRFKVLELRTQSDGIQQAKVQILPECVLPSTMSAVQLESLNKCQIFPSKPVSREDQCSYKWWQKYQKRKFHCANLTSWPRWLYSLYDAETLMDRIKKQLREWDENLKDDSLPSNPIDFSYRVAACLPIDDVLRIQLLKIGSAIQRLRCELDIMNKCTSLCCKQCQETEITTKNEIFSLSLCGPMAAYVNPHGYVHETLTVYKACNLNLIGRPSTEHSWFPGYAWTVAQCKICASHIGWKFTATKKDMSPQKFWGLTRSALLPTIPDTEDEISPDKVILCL
T2 sequence (Q16531 whole entry partner): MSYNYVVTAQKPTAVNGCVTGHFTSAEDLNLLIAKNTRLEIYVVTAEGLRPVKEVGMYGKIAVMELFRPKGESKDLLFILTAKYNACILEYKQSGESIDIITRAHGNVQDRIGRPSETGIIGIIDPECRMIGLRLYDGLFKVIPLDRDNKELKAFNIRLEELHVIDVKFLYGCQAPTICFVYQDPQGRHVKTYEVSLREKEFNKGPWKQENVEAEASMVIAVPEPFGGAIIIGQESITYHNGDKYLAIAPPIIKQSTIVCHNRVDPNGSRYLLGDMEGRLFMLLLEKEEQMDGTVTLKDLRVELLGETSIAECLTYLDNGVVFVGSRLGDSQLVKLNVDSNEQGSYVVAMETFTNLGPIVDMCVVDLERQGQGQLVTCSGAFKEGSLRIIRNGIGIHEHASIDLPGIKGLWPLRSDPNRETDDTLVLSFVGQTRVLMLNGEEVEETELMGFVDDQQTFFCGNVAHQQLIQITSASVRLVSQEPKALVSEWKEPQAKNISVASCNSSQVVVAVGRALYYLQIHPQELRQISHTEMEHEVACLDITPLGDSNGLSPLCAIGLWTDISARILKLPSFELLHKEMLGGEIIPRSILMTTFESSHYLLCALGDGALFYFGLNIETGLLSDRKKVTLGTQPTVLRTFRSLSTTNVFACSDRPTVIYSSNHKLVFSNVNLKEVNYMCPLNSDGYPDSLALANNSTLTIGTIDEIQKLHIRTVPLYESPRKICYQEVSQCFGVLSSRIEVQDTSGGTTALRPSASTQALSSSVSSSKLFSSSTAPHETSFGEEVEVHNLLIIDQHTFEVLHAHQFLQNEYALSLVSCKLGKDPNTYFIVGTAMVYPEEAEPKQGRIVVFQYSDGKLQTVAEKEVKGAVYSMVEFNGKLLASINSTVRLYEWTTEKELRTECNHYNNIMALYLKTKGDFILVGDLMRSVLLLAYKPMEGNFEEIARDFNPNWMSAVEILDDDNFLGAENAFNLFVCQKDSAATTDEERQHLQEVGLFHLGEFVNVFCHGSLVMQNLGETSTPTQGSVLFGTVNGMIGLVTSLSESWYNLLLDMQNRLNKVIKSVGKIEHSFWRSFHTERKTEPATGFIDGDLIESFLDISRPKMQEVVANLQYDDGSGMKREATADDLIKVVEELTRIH

Jurkat cells = assay: Compound cellular stability HPLC assay; assay type: in vitro ADME, human; conditions: 25 μM
Experimental: We hypothesized that the time-dependent variation in DC50 values for compound 23 might result from instability in the cellular environment or export from the cells, leading to a lower cellular concentration after the 24 h period. To assess its cellular stability, we incubated Jurkat cells with 25 μM of compound 23 and analyzed how much compound was recovered from the cells after 0.5, 6, and 24 h (Figure S21) using HPLC analysis. […] The data also indicate that compound 23 is being metabolized, transported out of the cells, or both, over a 24 h period, explaining the increase in DC50 value by this time point (Figure G,H).
Figure S21. Assessing crude cellular stability of compound in 23 in mammalian cells using HPLC.
Jurkat cells were incubated with 25 µM of compound 23 for 0.5 h, 6 h, or 24 h. Cells were washed
with PBS and lysed with MeOH, clarified, and analyzed by HPLC. Compound 23 presence in the
lysate was assessed using HPLC at a UV/Vis absorbance of 190 nm. After 0.5 h we observed 130
incubating at rt for 3 minutes, then reading using an EnVision multimode plate reader
(PerkinElmer). The data have been expressed as % of DMSO control. Three biological repeats
were carried out for this assay, with each biological replicate plate comprising three replicate
Compound Cellular Stability HPLC Assay
Analytical HPLC assay to identify compound 23 in mammalian cell lysate. Jurkat cells were
cultured as described previously and seeded at a density of 2.5 × 10^5 cells per well in a 6-well
plate. Cells were treated with 25 µM of compound 23 or DMSO, keeping the final concentration
either 0.5 h, 6 h, or 24 h. Cells were then pelleted, supernatant removed, and cells were washed
twice with 1 mL of PBS, centrifuging each time at 6,500 rpm on a tabletop centrifuge to avoid
prematurely lysing the cells. PBS was then removed, and cells were lysed with 100 µL of HPLC- […]
0.1% formic acid. […] Samples were read using a Shimadzu system […]
processed using LabSolutions (Version 5.117). Sample components were measured using the UV
absorbance at 190 nm and 254 nm. The reported analysis is the UV absorbance at 190 nm. […]

[3] = target: T3, TRIM28 with N-terminal WEIS degron tag and HiBit tag (Homo sapiens, UniProt Q96SW2+Q9UKT9, N149E/Q147W/Q150I); assay: HiBiT luminescence degradation assay; assay type: cell-based; conditions: Jurkat, 24 h
T3 construct: pLVX-Sprout-IKZF3 130-189aa Q147W N149E Q150I (WEIS); TRIM28 (fusion partner / protein of interest, gene TRIM28, human entry Q13263 by my knowledge); expressed in transfected cells; host or cells: Jurkat, lentiviral transduction; endogenous TRIM28 knocked out by CRISPR
T3 sequence (Q9UKT9 130-189 Q147W/N149E/Q150I): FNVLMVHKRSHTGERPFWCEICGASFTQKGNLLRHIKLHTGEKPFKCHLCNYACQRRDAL
T3 sequence (Q96SW2 whole entry, the tested form may be a part): as the sequence (Q96SW2 whole entry) above

[4] = target: T4, WEIS-EGFP in 3T3 mouse cells (UniProt Q8C7D2+Q9UKT9, N149E/Q147W/Q150I); assay: EGFP/mCherry flow cytometry degradation assay in 3T3 cells; assay type: cell-based; conditions: 18 h; compared to human cells
T4 construct: IKZF3 130aa-142aa 170-189aa fused to EGFP; EGFP (fusion partner, via a linker); expressed in transfected cells; host or cells: 3T3 mouse cells, lentivirally transduced with WEIS-EGFP-IRES-mCherry (Artichoke-derived, Addgene #73320)
T4 sequence (Q9UKT9 130-189 Q147W/N149E/Q150I): as the sequence (Q9UKT9 130-189 Q147W/N149E/Q150I) above
T4 sequence (Q8C7D2 whole entry, the tested form may be a part): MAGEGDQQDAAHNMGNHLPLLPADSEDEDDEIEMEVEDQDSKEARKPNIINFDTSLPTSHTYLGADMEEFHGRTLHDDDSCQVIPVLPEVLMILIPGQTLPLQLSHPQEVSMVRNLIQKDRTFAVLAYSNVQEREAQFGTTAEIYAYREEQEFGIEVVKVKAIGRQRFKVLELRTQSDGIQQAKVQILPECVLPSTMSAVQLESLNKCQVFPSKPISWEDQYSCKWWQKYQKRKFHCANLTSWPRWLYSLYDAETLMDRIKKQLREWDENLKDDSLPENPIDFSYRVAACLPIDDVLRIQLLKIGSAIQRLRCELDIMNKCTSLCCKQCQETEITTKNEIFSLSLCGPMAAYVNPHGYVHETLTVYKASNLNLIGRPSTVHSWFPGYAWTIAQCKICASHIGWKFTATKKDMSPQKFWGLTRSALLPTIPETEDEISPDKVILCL
T4 sequence (Q3U1J4 whole entry partner, the tested form may be a part): as the sequence (Q16531 whole entry partner) above, with N418G, A495G, T745S, T1020A counted along it
Experimental: It is also noteworthy that this system is not yet optimized for use in mouse cells, as mouse cereblon contains a key V388I mutation that prevents IMiD-induced recruitment of ZF neosubstrates. […] We anticipate that mutations could be introduced to this degron to make it mouse-compatible for future in vivo studies.
Figure S24. Dose response curve for 3T3 mouse cells lentivirally transduced with WEIS-EGFP-
IRES-mCherry incubated with a concentration curve of compound 23 (1pM – 10 μM) for 18 h and
analyzed by flow cytometry.
(1 picture or pasted object on this page, not shown here)

MM.1S cells = assay: TMTpro quantitative proteomics, 16 h; conditions: 10 μM
Experimental: Quantitative proteomics screens were carried out in untransduced Jurkat cells, embryonic stem cells (ESCs), and the multiple myeloma cell line, MM.1S. We used Jurkat cells, as our work up to this point had employed this cell line, and we selected ESCs and MM.1S cells as they express known CRBN neosubstrates, including IKZF1, IKZF3, RAB28, RNF166, SALL4, ZFP91, and ZNF827.
Proteomics - cell lysis and protein digestion
The viability of Jurkat cells was tested after 16-h treatment with corresponding chemicals
viable cells in each condition. Next, ~10^7 cells per condition were collected by centrifugation (1000 rpm), washed twice with ice-cold PBS, and lysed in RIPA buffer [50 mM HEPES pH 7.4, 150 mM NaCl, 1% sodium deoxycholate, 1% NP-40, 0.1% SDS, 10 mM sodium pyrophosphate, 10 mM β-glycerophosphate, 2.5 mM MgCl2, 200 µM TCEP, phosphatase and protease inhibitor cocktail (in-house)], to produce whole cell extracts. Whole-cell extracts were sonicated, and protein concentrations were determined using the Bradford assay. Protein extracts (100 µg) were subjected to disulfide bond reduction with 5 mM TCEP (10 min) and alkylation with 25 mM chloroacetamide (20 min). Methanol–chloroform precipitation was performed prior to protease digestion. […]

[5] = target: WDIA mutant ZF degron fused to EGFP (Homo sapiens, UniProt Q96SW2+Q9UKT9, N149D/Q147W/Q150I/S154A); assay: Ratiometric EGFP:mCherry flow cytometry degradation assay, 18 h
WDIA mutant ZF degron fused to EGFP, sequence (Q9UKT9 130-189 Q147W/N149D/Q150I/S154A): as the sequence (Q9UKT9 130-189 Q147W/N149E/Q150I) above, with E20D, S25A counted along it
WDIA mutant ZF degron fused to EGFP, sequence (Q96SW2 whole entry, the tested form may be a part): as the sequence (Q96SW2 whole entry) above
WDIA mutant ZF degron fused to EGFP, sequence (Q16531 whole entry partner, the tested form may be a part): as the sequence (Q16531 whole entry partner) above

FDIP mutant ZF degron fused to EGFP, sequence (Q9UKT9 130-189 Q147F/N149D/Q150I/S154P): as the sequence (Q9UKT9 130-189 Q147W/N149E/Q150I) above, with W18F, E20D, S25P counted along it
FDIP mutant ZF degron fused to EGFP, sequence (Q96SW2 whole entry, the tested form may be a part): as the sequence (Q96SW2 whole entry) above
FDIP mutant ZF degron fused to EGFP, sequence (Q16531 whole entry partner, the tested form may be a part): as the sequence (Q16531 whole entry partner) above
WEIK mutant ZF degron fused to EGFP, sequence (Q9UKT9 130-189 Q147W/N149E/Q150I/S154K): as the sequence (Q9UKT9 130-189 Q147W/N149E/Q150I) above, with S25K counted along it
WEIK mutant ZF degron fused to EGFP, sequence (Q96SW2 whole entry, the tested form may be a part): as the sequence (Q96SW2 whole entry) above
WEIK mutant ZF degron fused to EGFP, sequence (Q16531 whole entry partner, the tested form may be a part): as the sequence (Q16531 whole entry partner) above

| SMILES | Selectivity (WT/mutant) ([1]; DC50(WT)/DC50(WEIK)) | DC50 ([1]; WEIK, Jurkat, 18 h) [nM] | pDC50 ([1]; WEIK, Jurkat, 18 h) | Selectivity (WT/mutant) ([2]; DC50(WT)/DC50(FDIP)) | DC50 ([2]; FDIP, Jurkat, 18 h) [nM] | pDC50 ([2]; FDIP, Jurkat, 18 h) | degradation of endogenous GSPT1 (Western blot) (endogenous GSPT1) | degradation of endogenous IKZF1 (Western blot) (endogenous IKZF1) | compound recovered from cells (HPLC) (Jurkat cells; after 0.5 h) [nM] | compound recovered from cells (HPLC) (Jurkat cells; after 6 h) [nM] | compound recovered from cells (HPLC) (Jurkat cells; after 24 h) | D max [3] [%] | DC50 [3] [nM] | WEIS-EGFP degradation in 3T3 mouse cells [4] | proteins degraded (quantitative proteomics) (MM.1S cells) | Selectivity (WT/mutant) ([5]; DC50(WT)/DC50(WDIA)) | DC50 ([5]; WDIA, Jurkat, 18 h) [nM] | pDC50 ([5]; WDIA, Jurkat, 18 h) |
| --- | --- | --- | --- | --- | --- | --- | --- | --- | --- | --- | --- | --- | --- | --- | --- | --- | --- | --- |
| CC(C)(C)c1ccc2c(c1)C(=O)N(C1CCC(=O)NC1=O)C2=O (stereo not drawn) [Compound 19] | 18.1 | 42 | 7.38 | 12.0 | 63.1 | 7.20 |  |  |  |  |  |  |  |  |  |  |  |  |
| CN1CCN(c2ccc3c(c2)C(=O)N(C2CCC(=O)NC2=O)C3=O)CC1 (stereo not drawn) [Compound 23] |  |  |  |  |  |  | showed no degradation | showed no degradation | 130 | 30 | almost no compound remaining | 66 | 1270 | modest levels of WEIS-EGFP degradation | did not significantly (Welch’s t test) induce degradation of any protein | 22.0 | 28.8 | 7.54 |
